What follows are compounds tested against ROMK (Kir1.1) channel (Homo sapiens (Human), UniProt P48048) (assay: Thallium Flux Assay).
Format: cell-based
Procedure: A Thallium Flux Assay was performed on each of the final product compounds of the Examples. This assay has been described previously; see, e.g., PCT Published Application WO 2013/062900.

ROMK (Kir1.1) channel, sequence (P48048 whole entry): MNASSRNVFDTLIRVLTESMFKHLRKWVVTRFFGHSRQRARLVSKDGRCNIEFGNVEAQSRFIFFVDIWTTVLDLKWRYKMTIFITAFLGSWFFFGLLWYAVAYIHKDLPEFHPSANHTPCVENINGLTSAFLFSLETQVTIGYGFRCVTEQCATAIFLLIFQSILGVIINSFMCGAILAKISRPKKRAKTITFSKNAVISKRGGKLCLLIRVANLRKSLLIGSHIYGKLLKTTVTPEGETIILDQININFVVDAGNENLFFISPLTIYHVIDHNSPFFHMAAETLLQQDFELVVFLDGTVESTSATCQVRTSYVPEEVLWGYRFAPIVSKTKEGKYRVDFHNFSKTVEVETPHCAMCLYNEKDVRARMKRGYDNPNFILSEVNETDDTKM

SMILES | IC50 [nM]
C[C@@H]1C[C@]2(CC[C@H](NCc3ccc(-n4cnnn4)nc3)CC2)C(=O)N1C1=CC(=O)OC1 [Example 27, (3R,5s,8S)-3-methyl-2-(5-oxo-2,5-dihydrofuran-3-yl)-8-({[6-(1H-tetrazol-1-yl)pyridin-3-yl]methyl}amino)-2-azaspiro[4.5]decan-1-one] | 38
CC1=C(N2CC[C@]3(CC[C@@H](NC[C@H](O)c4ccc5c(c4C)COC5=O)CC3)C2=O)COC1=O [Example 78, (5r,8r)-8-(((R)-2-hydroxy-2-(4-methyl-1-oxo-1,3-dihydroisobenzofuran-5-yl)ethyl)amino)-2-(4-methyl-5-oxo-2,5-dihydrofuran-3-yl)-2-azaspiro[4.5]decan-1-one] | 210
C[C@@H]1C[C@]2(CC[C@H](NCc3ccc4c(c3)Cn3nnnc3-4)CC2)C(=O)N1C1=CC(=O)OC1 [Example 65, (3R,5s,8S)-8-(((5H-tetrazolo[5,1-a]isoindol-7-yl)methyl)amino)-3-methyl-2-(5-oxo-2,5-dihydrofuran-3-yl)-2-azaspiro[4.5]decan-1-one] | 19
CC1=C(N2CC[C@]3(CC[C@](C)(NCc4cnc(-n5cnnn5)cn4)CC3)C2=O)COC1=O [Example 68, (5s,8s)-8-(((5-(1H-tetrazol-1-yl)pyrazin-2-yl)methyl)amino)-8-methyl-2-(4-methyl-5-oxo-2,5-dihydrofuran-3-yl)-2-azaspiro[4.5]decan-1-one] | 140
CC1=C(N2CC[C@]3(CC[C@@H](N[C@@H](C)c4ccc5c(c4)Cn4nnnc4-5)CC3)C2=O)COC1=O [Example 31, (5S,8r)-2-(4-methyl-5-oxo-2,5-dihydrofuran-3-yl)-8-{[(1S)-1-(5H-tetrazolo[5,1-a]isoindol-7-yl)ethyl]amino}-2-azaspiro[4.5]decan-1-one] | 260
CC1=C(N2CC[C@]3(CC[C@@H](NCc4ncc(-n5cnnn5)nc4C)CC3)C2=O)COC1=O [Example 14, (5r,8r)-2-(4-methyl-5-oxo-2,5-dihydrofuran-3-yl)-8-({[3-methyl-5-(1H-tetrazol-1-yl)pyrazin-2-yl]methyl}amino)-2-azaspiro[4.5]decan-1-one] | 30
O=C1C=C(N2CC[C@]3(CC[C@@H](NCc4cnc(-n5cnnn5)cn4)CC3)C2=O)CO1 [Example 72, (5r,8r)-8-(((5-(1H-tetrazol-1-yl)pyrazin-2-yl)methyl)amino)-2-(5-oxo-2,5-dihydrofuran-3-yl)-2-azaspiro[4.5]decan-1-one] | 340
CC1=C(N2CC[C@]3(CC[C@@H](NCc4cc5c(cc4C)-c4nnnn4C5)CC3)C2=O)COC1=O [Example 61, (5r,8r)-2-(4-methyl-5-oxo-2,5-dihydrofuran-3-yl)-8-(((8-methyl-5H-tetrazolo[5,1-a]isoindol-7-yl)methyl)amino)-2-azaspiro[4.5]decan-1-one] | 23
CC1=C(N2CC[C@]3(CC[C@@H](NCc4ccc(-n5cnnn5)cc4)CC3)C2=O)COC1=O [Example 44, (5r,8r)-2-(4-methyl-5-oxo-2,5-dihydrofuran-3-yl)-8-{[4-(1H-tetrazol-1-yl)benzyl]amino}-2-azaspiro[4.5]decan-1-one] | 3.1
CC1=C(N2CC[C@]3(CC[C@@H](N[C@H](C)c4ccc(-n5cnnn5)cn4)CC3)C2=O)COC1=O [Example 32] | 110
CC1=C(N2CC[C@]3(CC[C@H](N[C@H](CO)c4ccc(-n5cnnn5)nc4)CC3)C2=O)COC1=O [Example 77] | 360
CC1=C(N2C(=O)[C@]3(CC[C@H](NCc4ccc5c(c4)Cn4nnnc4-5)CC3)C[C@H]2C)COC1=O [Example 60, (3R,5r,8R)-8-(((5H-tetrazolo[5,1-a]isoindol-7-yl)methyl)amino)-3-methyl-2-(4-methyl-5-oxo-2,5-dihydrofuran-3-yl)-2-azaspiro[4.5]decan-1-one] | 650
CC1=C(N2CC[C@]3(CC[C@H](NCc4ccc(-n5cnnn5)nc4)CC3)C2=O)COC1=O [Example 6, (5s,8s)-2-(4-methyl-5-oxo-2,5-dihydrofuran-3-yl)-8-({[6-(1H-tetrazol-1-yl)pyridin-3-yl]methyl}amino)-2-azaspiro[4.5]decan-1-one] | 450
CC1=C(N2CC[C@]3(CC[C@@H](NCCc4ccc5c(c4)COC5=O)CC3)C2=O)COC1=O [Example 2, (5r,8r)-2-(4-methyl-5-oxo-2,5-dihydrofuran-3-yl)-8-{[2-(1-oxo-1,3-dihydro-2-benzofuran-5-yl)ethyl]amino}-2-azaspiro[4.5]decan-1-one] | 44
CC1=C(N2CC[C@]3(CC[C@@H](N[C@@H](C)c4ccc5c(c4)CCc4nnnn4-5)CC3)C2=O)COC1=O [Example 21, (5S,8r)-8-{[(1S)-1-(4,5-dihydrotetrazolo[1,5-a]quinolin-7-yl)ethyl]amino}-2-(4-methyl-5-oxo-2,5-dihydrofuran-3-yl)-2-azaspiro[4.5]decan-1-one] | 44

Second part, the compound after the results:

IC50 [nM] | SMILES
680 | CC1=C(N2CC[C@]3(CC[C@@H](N(CC(N)=O)Cc4ccc(-n5cnnn5)nc4)CC3)C2=O)COC1=O [Example 141]
510 | CC1=C(N2CC[C@]3(CC[C@H](N(C)[C@H](C)c4ccc(-n5cnnn5)nc4)CC3)C2=O)COC1=O [Example 93]
110 | CC1=C(N2CC[C@]3(CC[C@H](N(CC(N)=O)Cc4ccc(-n5cnnn5)nc4)CC3)C2=O)COC1=O [Example 140]
93 | CN(Cc1cnc(-n2cnnn2)cn1)C1CCC2(CC1)CCN(C1=CC(=O)OC1)C2=O (stereo not drawn) [Example 128]
190 | CC1=C(N2CC[C@]3(CC[C@H](N(C)[C@H](CO)c4ccc(-n5cnnn5)nc4)CC3)C2=O)COC1=O [Example 85]
690 | CC1=C(N2CC[C@]3(CC[C@H](N(C)Cc4cnc(-n5cnnn5)cn4)CC3)C2=O)COC1=O [Example 91]
160 | CC1=C(N2CC[C@]3(CC[C@H](N(CCO)Cc4ccc(-n5cnnn5)nc4)CC3)C2=O)COC1=O [Example 131, (5s,8s)-8-[(2-hydroxyethyl) {[6-(1H-tetrazol-1-yl)pyridin-3-yl]methyl}amino]-2-(4-methyl-5-oxo-2,5-dihydrofuran-3-yl)-2-azaspiro[4.5]decan-1-one]
11 | CC1=C(N2CC[C@]3(CC[C@@H](N(C)[C@H](C)c4ccc(-n5cnnn5)nc4)CC3)C2=O)COC1=O [Example 94]
300 | CC1=C(N2CC[C@]3(CC[C@H](N(C)Cc4ccc(-n5ncnn5)cc4)CC3)C2=O)COC1=O [Example 111]
43 | CC1=C(N2C(=O)[C@]3(CC[C@H](N(C)Cc4ccc5c(c4)Cn4nnnc4-5)CC3)C[C@@H]2C)COC1=O [Example 120]
550 | CC1=C(N2CC[C@]3(CC[C@H](N(C)Cc4ccc(-n5cnnn5)cn4)CC3)C2=O)COC1=O [Example 87]
24 | CC1=C(N2CC[C@]3(CC[C@@H](N(C)[C@@H](C)c4ccc(-n5cnnn5)nc4)CC3)C2=O)COC1=O [Example 95]
160 | CC1=C(N2CC[C@]3(CC[C@H](N(CCO)Cc4ccc(-n5cnnn5)cn4)CC3)C2=O)COC1=O [Example 136]
64 | CC1=C(N2CCC3(CCC(N(C)C[C@H](O)c4ccc5c(c4C)COC5=O)CC3)C2=O)COC1=O (stereo partly drawn) [Example 124]
470 | CCN(Cc1ccc(-n2cnnn2)nc1)[C@H]1CC[C@]2(CCN(C3=C(C)C(=O)OC3)C2=O)CC1 [Example 134]

Source: patent US9718808B2, “Inhibitors of the renal outer medullary potassium channel” (Merck Sharp & Dohme Corp., priority 2014, dated 2017)
